Experiments:
ADC-7 = ADC-7 (Acinetobacter baumannii, UniProt Q6DRA1); test: Inhibition kinetics (competition with nitrocefin), ADC-7; assay type: biochemical; conditions: 100 μM nitrocefin, 3 min pre-incubation, Cheng–Prusoff corrected
Procedure: (§1) For inhibition kinetics, utilizing nitrocefin (NCF) as a colorimetric substrate, the inhibition constant (Ki) of MB076 and S02030 BATSI with ADCs was determined using competition kinetics as previously described.[10],[25],[28],[34] The measurements of the initial velocities were performed with the addition of 100 μM NCF after a 3 min pre-incubation of the enzyme (2 nM) with increasing concentration of the inhibitor. […] The Ki value was corrected for the NCF affinity (KM values for each ADC variant listed in Table 1) with the Cheng–Prusoff[35] equation: [drawing 2]

ADC-30 = ADC-30 (Acinetobacter baumannii, UniProt A7XM81); test: Inhibition kinetics (competition with nitrocefin), ADC-30; assay type: biochemical; conditions: 100 μM nitrocefin, 3 min pre-incubation
Procedure: as §1

[1] = tested on: ADC-212 in pBCSK(−) E. coli DH10B; test: Broth microdilution AST, ADC-212; assay type: cell-based
Procedure: (§2) Susceptibility testing to standard antibiotics was performed by broth microdilution or agar dilution using an Oxoid replicator according to 2021 Clinical and Laboratory Standards Institute (CLSI) guidelines. MICs for CAZ, CTX, FEP, and TOL were determined using cation-adjusted Mueller Hinton MH broth, and MICs for FDC were done in iron-depleted cation-adjusted MH broth according to CLSI methods. MB076, S02030, and VAB were used at a fixed concentration of 10 mg/L. All MICs were interpreted according to the 2021 CLSI guidelines.[43]
(§3) blaADC-7 pBCSK- was cloned and expressed in E. coli DH10B cells as previously described.[44] All other blaADC variants were synthesized by GenScript according to the blaADC-7 pBCSK- strategy, cloning into the XbaI/BamHI sites of the pBCSK- vector.

physchem = conditions: buffer, pH 7.4
Procedure: (§4) The in vitro stability of MB076 and S02030 was evaluated by incubating the compounds in both buffer (pH 7.4) and human plasma at 37 °C over 48 h. Half-lives (t1/2) were then calculated for each compound.
(§5) Plasma and buffer stability samples were analyzed by monitoring the disappearance of the compounds using high-performance liquid chromatography-mass spectrometry (LC–MS) techniques.
Standard solutions were prepared by adding the compound in DMSO (2.5 μM) to 0.1 M phosphate buffer pH 7.4 and MeOH. Solutions were vortexed, filtered, and analyzed by LC–MS (At=0). Samples were then prepared by adding a solution of the compound in DMSO (2.5 μM) to phosphate buffer pH 7.4 and incubating at 37 °C. At suitable time intervals, the reaction was stopped by the addition of MeOH. The solutions were vortexed and filtered. Degradation time courses were followed by LC–MS enabling the quantitation of compounds. Half-lives (t1/2) were calculated in Origin using a one-phase decay model with t1/2 = ln(2)/b, where b is the slope of a linear plot of natural logarithm (ln) of the remaining compound concentration (C) versus incubation time. Each condition was tested in triplicate.

in vitro = conditions: human, plasma, pH 7.4
Procedure: as §4, §5
Half-lives (t1/2) were calculated in Origin using a one-phase decay model with t1/2 = ln(2)/b, where b is the slope of a linear plot of natural logarithm (ln) of the remaining compound concentration (C) versus incubation time. Each condition was tested in triplicate.

ADC-33 [2] = target: T1, ADC-33 (Acinetobacter baumannii, UniProt A7Y407); test: Inhibition kinetics (competition with nitrocefin), ADC-33; assay type: biochemical; conditions: 100 μM nitrocefin, 3 min pre-incubation
Procedure: as §1

ADC variants = test: Inhibition kinetics, statement for all ADC variants; assay type: biochemical, Acinetobacter baumannii; conditions: bound stated for all ADC variants of the study
Procedure: as §1

ADC-162 = ADC-162 (Acinetobacter baumannii, UniProt A0A2H4PPJ8); test: Inhibition kinetics (competition with nitrocefin), ADC-162; assay type: biochemical
Procedure: as §1

[3] = tested on: ADC-33 in pBCSK(−) E. coli DH10B; test: Agar dilution AST, ADC-33; assay type: cell-based
Procedure: as §2, §3

[4] = tested on: ADC-7 in pBCSK(−) E. coli DH10B; test: Agar dilution AST, ADC-7; assay type: cell-based; conditions: Escherichia coli, E. coli DH10B ADC-7, MB076, S02030, VAB fixed at 10 mg/L
Procedure: as §2, §3

[5] = tested on: ADC-30 in pBCSK(−) E. coli DH10B; test: Agar dilution AST, ADC-30; assay type: cell-based; conditions: Escherichia coli, E. coli DH10B ADC-30, MB076, S02030, VAB fixed at 10 mg/L
Procedure: as §2, §3

[6] = tested on: ADC-219 in pBCSK(−) E. coli DH10B; test: Broth microdilution AST, ADC-219; assay type: cell-based; conditions: Escherichia coli, E. coli DH10B ADC-219, MB076 fixed at 10 mg/L in combinations, FDC in iron-depleted broth
Procedure: as §2, §3

[7] = tested on: ADC-30 in pBCSK(−) E. coli DH10B; test: Broth microdilution AST, ADC-30; assay type: cell-based; conditions: Escherichia coli, E. coli DH10B ADC-30, MB076 fixed at 10 mg/L in combinations, FDC in iron-depleted broth
Procedure: as §2, §3

[8] = tested on: ADC-219 in pBCSK(−) E. coli DH10B; test: Agar dilution AST, ADC-219; assay type: cell-based; conditions: Escherichia coli, E. coli DH10B ADC-219, MB076, S02030, VAB fixed at 10 mg/L
Procedure: as §2, §3

[9] = tested on: ADC-33 in pBCSK(−) E. coli DH10B; test: Broth microdilution AST, ADC-33; assay type: cell-based; conditions: Escherichia coli, E. coli DH10B ADC-33, MB076 fixed at 10 mg/L in combinations, FDC in iron-depleted broth
Procedure: as §2, §3

[10] = tested on: ADC-212 in pBCSK(−) E. coli DH10B; test: Agar dilution AST, ADC-212; assay type: cell-based; conditions: Escherichia coli, E. coli DH10B ADC-212, MB076, S02030, VAB fixed at 10 mg/L
Procedure: as §2, §3

ADC-33 [11] = target: T1, ADC-33; conditions: ADC-33; substrate
Procedure: Steady-state kinetic parameters were determined by combining pure enzyme with antibiotic substrates in 50 mM NaH2PO4, pH 7.4 at room temperature. Changes in absorbance were measured on a Cary 60 UV–Vis spectrophotometer (Agilent Technologies) and converted to velocity using the change in extinction coefficient specific to nitrocefin (ε482 = 17,400 M^–1·cm^–1), cephalothin (ε262 = 7660 M^–1·cm^–1), ceftazidime (ε260 = 8660 M^–1·cm^–1), cefotaxime (ε260 = 7500 M^–1·cm^–1), cefepime (ε260 = 750 M^–1·cm^–1), cefiderocol (ε259 = 9430 M^–1·cm^–1), and ceftolozane (ε254 = 6810 M^–1·cm^–1). Initial velocities were fit to the Michaelis–Menten equation yielding kcat and KM values. For ADC/substrate combinations in which the KM was too large to accurately determine both kcat and KM values, the initial velocities at kcat/KM values were calculated from linear fits of vo in low [S] ranges (<0.08 × KM).

[12] = tested on: ADC-162 in pBCSK(−) E. coli DH10B; test: Agar dilution AST, ADC-162; assay type: cell-based; conditions: Escherichia coli
Procedure: as §2, §3

[13] = tested on: ADC-7 in pBCSK(−) E. coli DH10B; test: Broth microdilution AST, ADC-7; assay type: cell-based; conditions: Escherichia coli, E. coli DH10B ADC-7, MB076 fixed at 10 mg/L in combinations, FDC in iron-depleted broth
Procedure: as §2, §3

## Nc1nnc(SCC(=O)N[C@@H](Cn2cc(C(=O)O)nn2)B(O)O)s1 [MB076, (R)-1-(2-(2-((5-Amino-1,3,4-thiadiazol-2-yl)thio)acetamido)-2-boronoethyl)-1H-1,2,3-triazole-4-carboxylic Acid]
ADC-7
  Ki: 210 ± 16 nM
ADC-30
  Ki: 58 ± 5 nM
[1]; ADC-212, MB076 10 mg/L
  reduction of the CTX MIC by MB076: 3 fold doubling dilution
physchem
  half-life: 33 h
In vitro
  half-life at 2.5 μM: 29 h
ADC-33 [2]
  Ki: 100 ± 4 nM
ADC variants
  Ki: < 1000 nM
ADC-162
  Ki: 790 ± 39 nM
[3]; ADC-33 variant, inhibitors 10 mg/L
  increase of susceptibility to CAZ relative to S02030: 3 fold

## CC(C)(O/N=C(\C(=O)N[C@@H]1C(=O)N2C(C(=O)[O-])=C(C[n+]3ccccc3)CS[C@H]12)c1csc(N)n1)C(=O)O [ceftazidime]
[4]
  MIC: 64 µg/mL
[5]
  MIC: 64 µg/mL
[6]
  MIC: 256 µg/mL
[7]
  MIC: 128 µg/mL
[1]; Escherichia coli, E. coli DH10B ADC-212, MB076 fixed at 10 mg/L in combinations, FDC in iron-depleted broth
  MIC: 512 µg/mL
[8]
  MIC: 64 µg/mL
[9]
  MIC: 2050 µg/mL
[10]
  MIC: 256 µg/mL
ADC-33 [11]
  kcat: 3.71 s^–1
[3]; Escherichia coli, E. coli DH10B ADC-33, MB076, S02030, VAB fixed at 10 mg/L
  MIC: 1020 µg/mL
[12]
  MIC: 128 µg/mL
[13]
  MIC: 64 µg/mL
